Laboratory results reported in patent publication US20250289789A1, “REVERSIBLE LYSINE COVALENT MODIFIERS OF CDK2 AND USES THEREOF” (Terremoto Biosciences, Inc., priority 2023, published 2025).
Where two headings read alike, the source gives them in different places.

Tests used:
Assay type in all cases: cell-based
[1] = molecular target: T1, CDK2-NanoLuc fusion with CCNE1 in 293T or 293 cells (Homo sapiens, UniProt P24941); experiment: NanoBRET Target Engagement (TE) Intracellular Kinase Assay, CDK2/CCNE1; details: NanoBRET TE intracellular kinase assay, 2-hour incubation, read-out: NanoBRET-CDK2/E1 IC50
T1 construct: host or cells: 293T (ATCC CRL-3216) or 293 (ATCC CRL-1573)

[2] = system: Phospho-Rb Ser807/811 in OVCAR3 cells; experiment: OVCAR3 Phospho-Rb Ser807/811 HTRF assay; details: Homo sapiens, OVCAR-3, 1 h, read-out: pRb-OVCAR3 IC50
Procedure: Cells were trypsinized and resuspended in 1 mM hydroxyurea (Sigma; H8627), 90% RPMI and 10% fetal bovine serum. […] Dose response curve normalized to DMSO control was plotted using four-parameter logistic model for IC50 calculation.

[3] = molecular target: T2, CDK4-NanoLuc fusion with CCND1 in 293T or 293 cells (Homo sapiens, UniProt P11802); experiment: NanoBRET Target Engagement (TE) Intracellular Kinase Assay, CDK4/CCND1; details: NanoBRET TE intracellular kinase assay, 2-hour incubation, read-out: NanoBRET-CDK4/D1 IC50
T2 construct: host or cells: 293T (ATCC CRL-3216) or 293 (ATCC CRL-1573)

[4] = molecular target: T3, CDK1-NanoLuc fusion with CCNB1 in 293T or 293 cells (Homo sapiens, UniProt P06493); experiment: NanoBRET Target Engagement (TE) Intracellular Kinase Assay, CDK1/CCNB1; details: NanoBRET TE intracellular kinase assay, 2-hour incubation, read-out: NanoBRET-CDK1/B1 IC50
T3 construct: host or cells: 293T (ATCC CRL-3216) or 293 (ATCC CRL-1573)
Method in brief: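 IC50 derived by four-parameter logistic fit of DMSO-normalized acceptor/donor (610/450 nm) BRET ratio. Compound and Tracer K-10 were applied together for 2 h at 37° C to 293 or 293T cells transfected 24 h earlier with CDK1-NanoLuc fusion and cyclin B1.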

[5] = OVCAR3 cells, Phospho-Rb Ser807/811 HTRF, 1 hour incubation

T2 sequence (P11802 whole entry, the tested form may be a part): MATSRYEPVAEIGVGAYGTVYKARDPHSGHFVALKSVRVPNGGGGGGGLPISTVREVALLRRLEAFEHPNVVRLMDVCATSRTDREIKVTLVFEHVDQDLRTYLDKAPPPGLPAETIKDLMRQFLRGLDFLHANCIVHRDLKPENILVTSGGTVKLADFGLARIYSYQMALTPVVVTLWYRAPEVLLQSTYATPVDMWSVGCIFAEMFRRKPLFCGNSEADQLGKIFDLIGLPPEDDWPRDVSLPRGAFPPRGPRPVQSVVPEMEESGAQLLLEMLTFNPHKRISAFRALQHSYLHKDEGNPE
T2 sequence (P24385 whole entry partner, the tested form may be a part): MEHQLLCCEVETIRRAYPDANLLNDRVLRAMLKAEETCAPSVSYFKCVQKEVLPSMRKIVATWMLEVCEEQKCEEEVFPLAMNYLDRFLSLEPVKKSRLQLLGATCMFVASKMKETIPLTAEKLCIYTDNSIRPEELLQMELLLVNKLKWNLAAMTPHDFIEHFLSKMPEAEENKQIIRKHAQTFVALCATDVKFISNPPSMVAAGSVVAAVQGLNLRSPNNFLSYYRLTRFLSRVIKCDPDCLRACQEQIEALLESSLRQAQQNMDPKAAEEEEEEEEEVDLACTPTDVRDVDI
T3 sequence (P06493 whole entry, the tested form may be a part): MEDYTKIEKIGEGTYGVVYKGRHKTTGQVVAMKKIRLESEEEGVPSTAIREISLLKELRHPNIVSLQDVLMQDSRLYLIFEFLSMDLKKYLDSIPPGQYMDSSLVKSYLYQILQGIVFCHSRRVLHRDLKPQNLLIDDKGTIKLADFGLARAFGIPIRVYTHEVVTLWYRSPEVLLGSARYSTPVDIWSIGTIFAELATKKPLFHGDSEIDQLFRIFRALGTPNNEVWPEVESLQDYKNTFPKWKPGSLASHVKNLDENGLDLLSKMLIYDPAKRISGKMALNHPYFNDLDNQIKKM
T3 sequence (P14635 whole entry partner, the tested form may be a part): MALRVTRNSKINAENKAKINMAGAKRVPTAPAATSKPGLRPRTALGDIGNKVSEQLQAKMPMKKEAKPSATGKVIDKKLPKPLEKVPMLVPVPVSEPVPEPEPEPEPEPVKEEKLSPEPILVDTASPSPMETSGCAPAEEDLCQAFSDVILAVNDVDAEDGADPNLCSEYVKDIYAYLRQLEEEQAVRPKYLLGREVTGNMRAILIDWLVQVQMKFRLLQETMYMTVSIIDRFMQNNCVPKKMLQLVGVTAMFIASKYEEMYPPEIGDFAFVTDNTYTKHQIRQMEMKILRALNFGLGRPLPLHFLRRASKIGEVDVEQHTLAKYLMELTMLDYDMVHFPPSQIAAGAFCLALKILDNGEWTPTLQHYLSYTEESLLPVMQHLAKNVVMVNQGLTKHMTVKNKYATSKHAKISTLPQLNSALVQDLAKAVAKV

Row | IC50 [1] | IC50 [2, 5] | IC50 [3] | IC50 [4] | SMILES | IC50 [2]
1 | 5.93 nM | 228 nM | 5200 nM | 15.1 nM | CC(C)(C)NC(=O)O[C@@H]1CC[C@H](c2cc(NC(=O)COc3cccc(O)c3C=O)n[nH]2)C1 [Compound 84, (1R,3S)-3-(3-(2-(2-formyl-3-hydroxyphenoxy)acetamido)-1H-pyrazol-5-yl)cyclopentyl tert-butylcarbamate] | 
2 | 3.39 nM | 22 nM | 2940 nM | 10.8 nM | COc1cc(O)c(C=O)c(OCC(=O)Nc2cc([C@H]3CC[C@@H](OC(=O)N[C@H]4C[C@H]4F)C3)[nH]n2)c1 [Compound 132] | 
3 | 2.46 nM | 27.4 nM | > 10000 nM | 5.62 nM | COc1cc(O)c(C=O)c(OCC(=O)Nc2cc([C@H]3CC[C@@H](OC(=O)N4CCOC[C@H]4C)C3)[nH]n2)c1 [Compound 206] | 
4 | 3.73 nM | 212 nM | > 10000 nM | 32.5 nM | O=Cc1c(O)cccc1OCC(=O)Nc1cc([C@H]2CC[C@@H](OC(=O)NC3CC3)C2)[nH]n1 [Compound 86, (1R,3S)-3-(3-(2-(2-formyl-3-hydroxyphenoxy)acetamido)-1H-pyrazol-5-yl)cyclopentyl cyclopropylcarbamate] | 
5 | 3.12 nM | 25.4 nM | 723 nM | 3.95 nM | COc1cc(O)c(C=O)c(OCC(=O)Nc2cc([C@H]3CC[C@@H](OC(=O)N4CCC[C@@H]4C)C3)[nH]n2)c1 [Compound 245] | 
6 | 2.18 nM | 40.2 nM | 2300 nM | 4.84 nM | COc1cc(O)c(C=O)c(OCC(=O)Nc2cc([C@H]3CC[C@@H](OC(=O)N4CCCC45CC5)C3)[nH]n2)c1 [Compound 232] | 
7 | 2.28 nM | 21.4 nM | 778 nM | 2.8 nM | COc1cc(O)c(C=O)c(OCC(=O)Nc2cc([C@H]3CC[C@@H](OC(=O)NC4(C)CCC4)C3)[nH]n2)c1 [Compound 254] | 
8 | 4.54 nM | 34.6 nM | > 9510 nM | 12.2 nM | COc1cc(O)c(C=O)c(OCC(=O)Nc2cc([C@H]3CC[C@@H](OC(=O)N4C[C@@H]5C[C@H]4CO5)C3)[nH]n2)c1 [Compound 204] | 
9 | 7.32 nM | 120 nM | 8710 nM | 12.8 nM | CC(C)NC(=O)O[C@@H]1CC[C@H](c2cc(NC(=O)COc3cc(OC(F)F)cc(O)c3C=O)n[nH]2)C1 [Compound 100, (1R,3S)-3-(5-{2-[5-(difluoromethoxy)-2-formyl-3-hydroxyphenoxy]acetamido}-2H-pyrazol-3-yl)cyclopentyl N-isopropylcarbamate] | 

The next lines start with the molecule.

Row | SMILES | IC50 [1] | IC50 [2, 5] | IC50 [3] | IC50 [4] | IC50 [2]
10 | COc1ccc(OCC(=O)Nc2cc([C@H]3CC[C@@H](OC(=O)NC(C)C)C3)[nH]n2)c(C=O)c1O [Compound 80, (1R,3S)-3-{5-[2-(2-formyl-3-hydroxy-4-methoxyphenoxy)acetamido]-2H-pyrazol-3-yl}cyclopentyl N-isopropylcarbamate] | 25.4 nM | 132 nM | > 10000 nM | 37.3 nM | 
11 | CC(C)NC(=O)O[C@@H]1CC[C@H](c2cc(NC(=O)c3cnc(-c4cccc(O)c4C=O)o3)n[nH]2)C1 [Compound 55, (1R,3S)-3-{5-[2-(2-formyl-3-hydroxyphenyl)-1,3-oxazole-5-amido]-2H-pyrazol-3-yl}cyclopentyl N-isopropylcarbamat] | 21.9 nM | 1430 nM | > 10000 nM | 69.9 nM | 
12 | CC(C)NC(=O)O[C@@H]1CC[C@H](c2cc(NC(=O)OCCc3cccc(O)c3C=O)n[nH]2)C1 [Compound 35, 2-(2-formyl-3-hydroxyphenyl)ethyl N-{5-[(1S,3R)-3-[(isopropylcarbamoyl)oxy]cyclopentyl]-1H-pyrazol-3-yl}carbamate; trifluoroacetic acid] | 23.9 nM | 4130 nM | 3960 nM | 537 nM | 
13 | CC(C)NC(=O)O[C@@H]1CC[C@H](c2cc(NC(=O)c3cc(-c4cc(F)cc(O)c4C=O)nn3C)n[nH]2)C1 [Compound 42, (1R,3S)-3-{5-[5-(5-fluoro-2-formyl-3-hydroxyphenyl)-2-methylpyrazole-3-amido]-2H-pyrazol-3-yl}cyclopentyl N-isopropylcarbamate; trifluoroacetic acid] | 5.5 nM | 176 nM | 2680 nM | 10.6 nM | 
14 | CC(C)NC(=O)O[C@@H]1CC[C@H](c2cc(Nc3cc(COc4cccc(O)c4C=O)ccn3)n[nH]2)C1 [Compound 24, (1R,3S)-3-(3-((4-((2-formyl-3-hydroxyphenoxy)methyl)pyridin-2-yl)amino)-1H-pyrazol-5-yl)cyclopentyl isopropylcarbamate] | 18.7 nM | 3760 nM | 4880 nM | 516 nM | 
15 | CC(C)NC(=O)O[C@@H]1CC[C@H](c2cc(NC(=O)COCc3cccc(O)c3C=O)n[nH]2)C1 [Compound 36, (1R,3S)-3-(5-{2-[(2-formyl-3-hydroxyphenyl)methoxy]acetamido}-2H-pyrazol-3-yl)cyclopentyl N-isopropylcarbamate; trifluoroacetic acid] | 8.17 nM | 702 nM | 1910 nM | 82.2 nM | 
16 | CC(C)NC(=O)O[C@@H]1CC[C@H](c2cc(NC(=O)CCOc3cccc(O)c3C=O)n[nH]2)C1 [Compound 34, (1R,3S)-3-{5-[3-(2-formyl-3-hydroxyphenoxy)propanamido]-2H-pyrazol-3-yl}cyclopentyl N-isopropylcarbamate; trifluoroacetic acid] | 5.34 nM | 552 nM | 196 nM | 98.9 nM | 
17 | CC(C)NC(=O)O[C@@H]1CC[C@H](c2cc(NC(=O)c3cc(-c4cccc(O)c4C=O)n(C)n3)n[nH]2)C1 [Compound 59, (1R,3S)-3-{5-[5-(2-formyl-3-hydroxyphenyl)-1-methylpyrazole-3-amido]-2H-pyrazol-3-yl}cyclopentyl N-isopropylcarbamate] | 32.1 nM | 2300 nM | > 10000 nM | 362 nM | 
18 | CC(C)NC(=O)O[C@@H]1CC[C@H](c2cc(NC(=O)c3cc(C(=O)Nc4cccc(O)c4C=O)nn3C)n[nH]2)C1 [Compound 20, (1R,3S)-3-(5-{5-[(2-formyl-3-hydroxyphenyl)carbamoyl]-2-methylpyrazole-3-amido}-2H-pyrazol-3-yl)cyclopentyl N-isopropylcarbamate; trifluoroacetic acid] | 10.5 nM | 915 nM | 1210 nM | 147 nM | 
19 | CC(C)NC(=O)O[C@@H]1CC[C@H](c2cc(Nc3cc(OCc4cccc(O)c4C=O)ccn3)n[nH]2)C1 [Compound 25, (1R,3S)-3-[5-({4-[(2-formyl-3-hydroxyphenyl)methoxy]pyridine-2-yl}amino)-2H-pyrazol-3-yl]cyclopentyl N-isopropylcarbamate] | 9.94 nM | 1330 nM | 1210 nM | 299 nM | 
20 | CC(C)NC(=O)O[C@@H]1CC[C@H](c2cc(NC(=O)c3cc(-c4cccc(O)c4C=O)nn3C3CC3)n[nH]2)C1 [Compound 61, (1R,3S)-3-(3-(1-cyclopropyl-3-(2-formyl-3-hydroxyphenyl)-1H-pyrazole-5-carboxamido)-1H-pyrazol-5-yl)cyclopentyl isopropylcarbamate] | 6.27 nM | 477 nM | 2890 nM | 36.1 nM | 
21 | CC(C)NC(=O)O[C@@H]1CC[C@H](c2cc(NC(=O)CCc3cccc(O)c3C=O)n[nH]2)C1 [Compound 7, (1R,3S)-3-(3-(3-(2-formyl-3-hydroxyphenyl)propanamido)-1H-pyrazol-5-yl)cyclopentyl isopropylcarbamate trifuoroacetic acid] | 11.4 nM |  | 1850 nM | 275 nM | 1500 nM
22 | CC(C)NC(=O)O[C@@H]1CC[C@H](c2cc(NC(=O)c3cc(OCc4cccc(O)c4C=O)nn3C)n[nH]2)C1 [Compound 28, (1R,3S)-3-(3-(3-((2-formyl-3-hydroxybenzyl)oxy)-1-methyl-1H-pyrazole-5-carboxamido)-1H-pyrazol-5-yl)cyclopentyl isopropylcarbamate] | 10.4 nM | 1820 nM | 1190 nM | 151 nM | 
23 | CC(C)NC(=O)O[C@@H]1CC[C@H](c2cc(NC(=O)c3cc(C#Cc4cccc(O)c4C=O)nn3C)n[nH]2)C1 [Compound 29, (1R,3S)-3-(5-{5-[2-(2-formyl-3-hydroxyphenyl)ethynyl]-2-methylpyrazole-3-amido}-2H-pyrazol-3-yl)cyclopentyl N-isopropylcarbamate] | 18.6 nM | 2150 nM | 1550 nM | 494 nM | 
24 | COc1cc(O)c(C=O)c(OCc2cc(C(=O)Nc3cc([C@H]4CC[C@@H](OC(=O)NC(C)C)C4)[nH]n3)n(C)n2)c1 [Compound 77] | 3.05 nM | 46.5 nM | 44.3 nM | 8.93 nM | 
